Measured values: US20130040331A1, “LABEL-FREE METHODS RELATED TO hERG POTASSIUM ION [sequence]” (CORNING INCORPORATED, priority 2009, published 2013)
Entries after “also recorded” stand apart in the source; their conditions may differ. Where two headings read alike, the source gives them in different places.

Key:
[1] = test system: mallotoxin DMR signal in HT29 cells; assay: DMR modulation index against the mallotoxin DMR signal in HT29 cells; type: cell-based, human
Description: (§1) A “molecule modulation index” or like terms is an index to display the ability of the molecule to modulate the biosensor output signals of the panels of markers acting on the panel of cells. The modulation index is generated by normalizing a specific biosensor output signal parameter of a response of a cell upon stimulation with a marker in the presence of a molecule against that in the absence of any molecule.
(§2) Epic® wavelength interrogation system (Corning Inc., Corning, N.Y.) was used for whole cell sensing. This system consists of a temperature-control unit, an optical detection unit, and an on-board liquid handling unit with robotics. The detection unit is centered on integrated fiber optics, and enables kinetic measures of cellular responses with a time interval of ˜15 sec.
(§3) Cells were plated in 384-well Epic® cell culture treated plate (Corning Cat#5040) 16-20 hours before assay (15000 cells/well for HEK293 and HEK-hERG cells, 30000 cells/well for HT29 cells). For both HEK-hERG and its parental HEK293 cells, each well was coated with 10 μl 5 μg/ml fibronectin. One hour before assay, cells were washed twice on a BioTek ELx405 Select washer with Hank's Balanced Salt Solution (HBSS) containing 20 mM Hepes. Cells were incubated in 40 μl/well HBSS at 28° C. inside the Epic system for one hour. For each assay, a 2-min baseline was initiated, followed by addition of 10 μl compound solutions (5×) and the cell responses were recorded continuously for one hour.
(§4) All studies were carried out at a controlled temperature (28° C.). At least two independent sets of experiments, each with at least three replicates, were performed. […] All dose-dependent responses were analyzed using non-linear regression method with the GraphPad Prism 5.
(§5) The DMR modulation index was generated by normalizing the mallotoxin DMR signal in either cell line in the presence of compound […] to its corresponding DMR signal in the absence of the compound, and the percentage of modulation was based on the amplitude of the mallotoxin DMR signal at a specific time (−18 min after stimulation for HEK-hERG cells, and ˜50 min after stimulation for HT29 cells, respectively). Mallotoxin is known to display polypharmacology. It is also known to be a protein kinase C (PKC) inhibitor; and PKC is a downstream signaling component of hERG activation. Thus, it would be difficult or almost impossible to assign the mode(s) of action of mallotoxin to be a hERG activator when either cell line is individually assayed with the label-free biosensor (i.e., Epic® system). […] However, combining the primary DMR profiles of a compound across the three cell lines tested with the modulation index of the compound against the mallotoxin responses in both HT29 and […] cells can correctly identify whether the compound is a hERG activator or not. The results shown in FIG. 1 indicate that indeed mallotoxin is a hERG activator; and the activation of hERG can result in detectable biosensor responses in the two hERG expressing cell lines.

[2] = test system: hERG channel or hERG-associated signaling complex; assay: Classification of hERG modulators by label-free biosensor profiles across three cell lines plus mallotoxin modulation index; type: cell-based, human
Description: The traditional hERG ion channel assay involves assaying ion flux such as Rb^+ flux using ion absorption assays, or assaying hERG currents directly using patch clamping methods. Traditionally, a molecule which causes increase in Rb^+ flux and/or hERG currents is referred to a hERG activator, while a molecule which inhibits Rb^+ flux and/or hERG currents is referred to a hERG inhibitor. […] These hERG activators may or may not result in detectable biosensor signals in cells, using label-free biosensor cellular assays. A hERG activator that results in a detectable biosensor signal in a hERG expressing cell via hERG or hERG signaling complex is also referred to a label-free biosensor hERG activator.
Disclosed are methods of classifying a molecule for modulating hERG activity, comprising the steps: a. incubating a molecule individually with at least three different types of cells consisting of a native cell endogenously expressing hERG, an engineered cell stably expressing hERG and its parental cell without expressing hERG, and b. monitoring the molecule induced cellular response on each cell type with a label-free biosensor cellular assay,
Also disclosed are methods, further comprising as steps c) incubating a label-free biosensor hERG activator with each cell type in the presence of the molecule, d. monitoring the label-free biosensor hERG activator induced cellular response on each cell type in the presence of the molecule, e. generating a biosensor modulation index of the molecule against the label-free biosensor hERG activator induced biosensor signals in the two hERG expressing cell types.
as §5

[3] = biological target: T1, hERG channel (Homo sapiens, UniProt Q12809); assay: Rb+ flux assay using HEK-hERG cells; conditions: for effect on hERG ion flux (Rb+ flux, FIG. 6): HEK-hERG cells, overall statement, KCl and concentration not specified
T1 sequence (Q12809 whole entry): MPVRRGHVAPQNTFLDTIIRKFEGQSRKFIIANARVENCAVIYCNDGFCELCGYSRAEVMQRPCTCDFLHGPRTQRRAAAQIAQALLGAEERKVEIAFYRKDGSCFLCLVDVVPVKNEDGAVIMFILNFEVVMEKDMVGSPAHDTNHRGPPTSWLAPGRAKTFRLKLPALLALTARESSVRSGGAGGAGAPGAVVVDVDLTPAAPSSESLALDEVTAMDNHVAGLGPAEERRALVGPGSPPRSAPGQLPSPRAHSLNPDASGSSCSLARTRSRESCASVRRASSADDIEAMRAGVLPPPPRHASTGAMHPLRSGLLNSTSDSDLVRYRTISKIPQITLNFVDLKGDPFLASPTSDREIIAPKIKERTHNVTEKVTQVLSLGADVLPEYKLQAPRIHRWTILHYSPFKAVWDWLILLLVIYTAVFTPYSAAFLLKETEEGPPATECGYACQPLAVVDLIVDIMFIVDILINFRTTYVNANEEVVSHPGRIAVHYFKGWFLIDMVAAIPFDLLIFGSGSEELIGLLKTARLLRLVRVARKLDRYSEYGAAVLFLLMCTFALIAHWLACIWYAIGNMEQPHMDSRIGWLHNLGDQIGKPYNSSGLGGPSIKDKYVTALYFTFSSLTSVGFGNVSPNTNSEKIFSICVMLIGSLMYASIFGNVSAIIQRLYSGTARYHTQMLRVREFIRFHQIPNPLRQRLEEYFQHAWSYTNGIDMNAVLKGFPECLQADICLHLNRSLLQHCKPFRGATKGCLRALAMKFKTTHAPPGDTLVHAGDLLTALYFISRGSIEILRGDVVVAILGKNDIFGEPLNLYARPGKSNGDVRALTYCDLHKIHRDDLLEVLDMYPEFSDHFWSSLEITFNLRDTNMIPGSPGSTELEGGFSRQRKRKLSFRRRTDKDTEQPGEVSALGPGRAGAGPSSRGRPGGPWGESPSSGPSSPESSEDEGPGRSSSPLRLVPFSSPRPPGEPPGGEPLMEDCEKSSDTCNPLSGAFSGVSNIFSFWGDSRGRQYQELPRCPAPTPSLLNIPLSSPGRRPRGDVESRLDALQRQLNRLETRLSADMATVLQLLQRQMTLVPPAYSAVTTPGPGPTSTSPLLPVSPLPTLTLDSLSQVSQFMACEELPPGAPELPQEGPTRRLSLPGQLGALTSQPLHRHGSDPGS
Experimental: Briefly, 50,000 cells per well were plated in 96-well tissue culture treated plates 20 hours before assay. In the next day, cells were incubated with complete cell culture medium containing 5 mM RbCl for 3 hours at 37° C. with 5% CO2. Then compounds (10×) diluted in HBSS were added into the cell culture medium and cells were incubated at 37° C. with 5% CO2 for another hour. Cells were washed twice with Rb^+ free cell culture medium and incubated with 180 μl/well of cell culture medium containing different concentration of KCl for exactly 10 minutes. The supernatant from each well was transferred to a new 96 well plate immediately. Cells were lysed with 180 μl/well 0.5% Triton-100 in HBSS. The Rb^+ concentration of each sample was determined by ICR8000 (Aurora Biomed Inc.).

[4] = test system: HEK-hERG cells; assay: Label-free RWG biosensor (Epic) DMR assay, agonism mode, HEK-hERG cells stably expressing hERG; type: cell-based, human
Experimental: as §2, §3, §4
(§6) Three different types of cells: human colon cancerous cell line HT-29, HEK293 and its engineered HEK-hERG cell lines were used. HT-29 is known to endogenously express hERG channels. HEK293 is a native cell line without endogenously expressed hERG channels, while HEK-hERG is an engineered HEK293 cells having stably expressed hERG channels. Mallotoxin, a newly discovered hERG activator, was used to activate hERG channels at or near physiological conditions (i.e., 1×HBSS buffered conditions).

[5] = test system: mallotoxin DMR signal in HEK-hERG cells; type: cell-based, human
Description: as §1, §2, §3, §4, §5

[6] = test system: HEK293 cells; assay: Label-free RWG biosensor (Epic) DMR assay, agonism mode, native HEK293 cells without hERG; type: cell-based, human
Experimental: as §2, §3
All studies were carried out at a controlled temperature (28° C.). At least two independent sets of experiments, each with at least three replicates, were performed. […] All dose-dependent responses were analyzed using non-linear regression method with the GraphPad Prism 5. […]

[7] = test system: HT29 cells; assay: Label-free RWG biosensor (Epic) DMR assay, agonism mode, HT29 cells endogenously expressing hERG; type: cell-based, human
Experimental: as §2, §3, §4, §6

[8] = test system: PKC; assay: Effect on PKC activity (data not shown)
[9] = test system: phosphodiesterase 4; assay: Effect on phosphodiesterase 4 activity (data not shown)
[10] = biological target: T1, hERG channel; assay: Automated patch clamp recording of hERG current using IonWorks, CHO-hERG cells
Experimental: CHO—K1 cells stably expressing hERG channel (CHO-hERG) were cultured in T175 flask till about 70% confluent. Cells were washed twice with PBS, then 2.5 ml 0.25% Trypsin/EDTA was mixed with 2.5 ml PBS and added to the T175 flask. Cells were incubated about 2 minutes with the diluted Trypsin/EDTA solution at 37° C., then were continuously incubated about 3 minutes at room temperature. 20 ml fresh medium were added to suspend the cells and transfer to a 50 ml tube. Cells were centrifuged down at 750 rpm for 5 minutes. The extra medium was removed and cells were resuspended in 6 ml External Buffer (137 mM NaCl, 4 mM KCl, 1.8 mM CaCl2, 1 mM MgCl2, 10 mM HEPES, 10 mM glucose, pH 7.4). Then cells were centrifuged again at 450 rpm for another 5 minutes. Finally cells were resuspended in 4 ml the External Buffer, cell number was counted using a hemacytometer. Cell suspension was diluted to 2.5×10^6 cells/ml with the External Buffer. 4 ml of the resuspended cells were added to the cell reservoir in IonWorks. The Internal solution used contains: 40 mM KCl, 100 mM K-Gluconate, 3.2 mM MgCl2, 2 mM CaCl2, 5 mM HEPES, pH 7.25 (adjusted with KOH). 5 mg Amphotericin B from 200 ul DMSO stock was added to 65 ml the Internal solution and mixed well to achieve electrical access to the interior of cells on the patch plate.
Compounds were prepared from 10 mM DMSO stock and diluted in the External Buffer to make 3× compound solution. […] of the 3× compound solution was transferred to a 384 well plate in Row A, B, C and D. PD11857 (Sigma-Aldrich), a reported hERG channel activator was used as activator positive control (final concentration 30 and 50 μM). hERG blocker dofetilide was used as blocker positive control (final concentration 100 nM). The final DMSO concentration in the IonWorks Quattro PatchPlate PPC plate (Cat#9000-0902, Molecular Devices) was 0.5%. Final compound concentration was 50 μM. Each compound was added to four wells of one PPC plate.
hERG currents were recorded on IonWorks Quattro (Molecular Devices). To record hERG current, the cells were clamped at −80 mV initially, then followed by a 5-s depolarization at +40 mV to activate the channels. Tail currents were measured during an ensuing return to −35 mV. Data analysis were done using IonWorks Quttro® System Software version 2.0.4.4. Data from wells with seal resistance less than 50 MΩ or hERG tail currents less than 0.1 nA were filtered out. […] Inhibitor hits were selected if hERG tail currents ratio (post/pre-compound) is less than mean-2SD of the average DMSO control.
To record hERG current, the cells were clamped at −80 mV initially, then followed by a 5-s depolarization at +40 mV to activate the channels (phase a in FIG. 10A). Tail currents were measured during an ensuing return to −35 mV for 2 seconds (phase b in FIG. 10A). Final holding potential at −70 mV (phase c in FIG. 10B).

[11] = compound at 10 micromolar, mallotoxin 16 micromolar
[12] = 16 μM mallotoxin, blockers dose-dependent (30 μM, 30 min pretreatment in FIG. 8A)

## N#CC(C#N)=Cc1ccc([N+](=O)[O-])c(O)c1 [AG-126]
[1]; [11]
  modulation of the mallotoxin DMR signal in HT29 cells: only partially attenuated
[2]
  hERG pathway activity class by label-free biosensor: hERG pathway activator, specifically in the endogenous hERG channel complex in HT29
[3]
  effect on hERG ion flux (Rb+ flux, FIG. 6): little or no impact; also recorded: non-effector in hERG ion flux

## O=C(Nc1cc(C(F)(F)F)ccc1O)Nc1cc(C(F)(F)F)ccc1O [NS1643]
[4]; concentration not given, data not shown
  DMR signal in HEK-hERG cells: induced a detectable DMR signal

## COc1cc(N)c(Cl)cc1C(=O)NC1CCN(CCCOc2ccc(F)cc2)CC1OC (stereo not shown) [cisapride]
[5]
  effect of pretreatment on the mallotoxin DMR signal in HEK-hERG cells: dose-dependent suppression

## O=C(O)c1cc(-c2ccc(F)cc2F)ccc1O [diflunisal]
[5]; human
  score of modulation index in coordination, HEK-hERG coordinate: 1
[1]; [11]
  modulation of the mallotoxin DMR signal in HT29 cells: completely desensitized
[2]
  hERG pathway activity class by label-free biosensor: hERG pathway activator
[3]; 5 mM KCl, compound at 10 or 50 μM
  Rb+ signal in HEK-hERG cells: only at 50 μM triggered a detectable increase
[3]
  effect on hERG ion flux (Rb+ flux, FIG. 6): weak hERG ion flux activator

## O=C(O)c1cccnc1Nc1cccc(C(F)(F)F)c1 [niflumic acid]
[2]
  hERG pathway activity class by label-free biosensor: hERG pathway activator

## CC(C)(O)[C@H]1O[C@H]2CC[C@@]3(C)[C@@](O)(CC[C@H]4Cc5c([nH]c6ccccc56)[C@@]43C)C2=CC1=O [paxilline]
[5]; [12]
  effect of pretreatment on the mallotoxin DMR signal in HEK-hERG cells: no effect

## C=C(C)[C@H]1O[C@H]2CC[C@@]3(C)[C@@](O)(CC[C@H]4[C@@H]5OC(C)(C)[C@H]6C[C@@H]7C(=C)Cc8c(Cl)cc9[nH]c(c5c9c8[C@@]76O)[C@@]43C)[C@@]23O[C@H]3[C@H]1O [penitrem A]
[5]; [12]
  effect of pretreatment on the mallotoxin DMR signal in HEK-hERG cells: no effect

## O=C1NCCN1CCN1CCC(c2cn(-c3ccc(F)cc3)c3ccc(Cl)cc23)CC1 [sertindole]
[4]
  DMR signal in HEK-hERG cells: did not trigger any DMR signals
[6]
  DMR signal in HEK293 cells: did not trigger any DMR signals
[7]
  DMR signal in HT29 cells: did not trigger any DMR signals
[1]; dose dependent, concentrations not given
  modulation of the mallotoxin DMR signal in HT29 cells: attenuated

## N#CC(C#N)=C(N)/C(C#N)=C/c1cc(O)c(O)c(O)c1 [tyrphostin 51]
[8]
  effect on activity of PKC: suppresses the activity
[9]
  effect on activity of phosphodiesterase 4: suppresses the activity
[4]; compound at 10 μM
  DMR signal in HEK-hERG cells: robust but different DMR signals
[10]; 50 μM, tail current at return to −35 mV
  effect on hERG tail current: significantly suppressed
[10]; final compound concentration 50 μM
  effect on hERG current: hERG current inhibitor
[1]; [11]
  modulation of the mallotoxin DMR signal in HT29 cells: only partially attenuated
[2]
  hERG pathway activity class by label-free biosensor: hERG pathway activator
[3]
  effect on hERG ion flux (Rb+ flux, FIG. 6): little impact; also recorded: weak hERG ion flux activator
